Reference: publication PMC6216040, “Repurposing of an old drug: In vitro and in vivo efficacies of buparvaquone against Echinococcus multilocularis” (International Journal for Parasitology: Drugs and Drug …, 2018)
Where two headings read alike, the source gives them in different places.

Experiments:
[1] = tested on: E. multilocularis metacestodes; assay: BPQ treatment of E. multilocularis infected mice; assay type: in vivo, Balb/c mice
Protocol: Balb/c mice, 6 weeks old, were purchased from Charles River Laboratories (Sulzheim, Germany) and used for in vivo experiments when they were 8 weeks old and weighted approximately 20 g. The mice were housed in a type 3 cage containing enrichment in the form of a cardboard house and paper and woodchip bedding with a maximum of seven mice per cage. […] Food and water was provided ad libitum. Experimentally infected mice were treated with BPQ to elucidate the efficacy of the drug in vivo. To infect mice, in vitro grown E. multilocularis metacestodes (isolate […]) were washed in PBS, were mechanically destroyed by pipetting and the resulting suspension was centrifuged for 5 min at 500 g. The parasite tissue was then taken up in an equal volume of PBS. Each mouse was subsequently infected intraperitoneally (i.p.) with 200 μl of this suspension. […] infected mice were randomly distributed into 3 treatment groups (8 animals per group) with 4 animals per cage. […] Treatments of mice started 2 weeks post-infection and lasted for 4 weeks, with consecutive treatment of mice for 5 days per week, followed by an interruption of treatment for 2 days for recovery. All treatments were administered by oral gavage in a volume of 50 μl, with ABZ and BPQ being suspended in corn oil. After four weeks, all mice were anesthetized with isoflurane and subsequently euthanized by CO2. The parasitic tissue from each mouse was completely resected and weighed. The mass of the resected parasitic tissue was used for statistical analyses of the experiment. […] The significance level was set to p < 0.05. Figures were prepared in R and Adobe Illustrator 2015.1.0.

[2] = tested on: E. multilocularis metacestodes; conditions: cited from earlier work; for effect in vitro against E. multilocularis metacestodes: ref Reuter et al.
[3] = tested on: E. multilocularis metacestodes; assay: PGI-assay: drug-induced damage on in vitro cultured metacestodes (Pathogen Box screening cascade and EC50); assay type: cell-based, Echinococcus multilocularis; conditions: for activity in the screen at 10 μM (confirmed in triplicates, >20% relative PGI release): 5 and 12 days; for cytotoxicity at 10 µM / PGI release, % of Tx-100 control at 10 µM: Echinococcus multilocularis; for cytotoxicity at 10 µM / PGI release, % of the Tx-100 control, 5d / PGI release, % of the Tx-100 control, 12d: singlets, 10 µM; for activity in the screen at 10 μM (confirmed in triplicates, >20% relative PGI release) / activity in the present in vitro screen (threshold 20% relative activity compared to Tx-100): 10 μM
[4] = 1 µM, triplicates, 5 days of incubation
[5] = 1 µM, triplicates, 12 days of incubation
[6] = 120 h, 5 days of incubation, read-out: PGI release, % of the Tx-100 control, 5d
[7] = 120 h, confirmatory screening at 10 µM in triplicates, 5 days of incubation, values as % of Tx-100 control, read-out: PGI release, % of Tx-100 control, average, 5d
[8] = 288 h, 12 days of incubation, read-out: PGI release, % of the Tx-100 control, 12d
[9] = 288 h, confirmatory screening at 10 µM in triplicates, 12 days of incubation, values as % of Tx-100 control, read-out: PGI release, % of Tx-100 control, average, 12d
[10] = confirmatory screening at 10 µM in triplicates, 5 days of incubation, values as % of Tx-100 control
[11] = confirmatory screening at 10 µM in triplicates, 12 days of incubation, values as % of Tx-100 control

Molecule: CCCSc1ccc2nc(NC(=O)OC)[nH]c2c1 [ABZ, albendazole]
- parasite burden compared to the control ([1]; p.o. in corn oil, 5 days per week, 4 weeks, BPQ 100 mg/kg, ABZ 200 mg/kg): significant reduction
- adverse effects due to treatment ([1]; whole course of treatment, 4 weeks p.o.): None of the mice showed signs of adverse effects

Molecule: OC(c1cc(C(F)(F)F)nc2c(C(F)(F)F)cccc12)C1CCCCN1 (stereo not drawn) [MMV000016, Mefloquine, reference compound]
- IC50 ([2]; ref Stadelmann et al., 2011, Küster et al., 2011, 2015, Rufener et al., 2018, read-out: IC50 value against this parasite in vitro): > 30 µM
- PGI release, % of Tx-100 control, average, 5d [3, 4]: 0.24%
- PGI release, % of Tx-100 control, average, 12d [3, 5]: 8.91%
- activity in the screen at 10 μM (confirmed in triplicates, >20% relative PGI release) [3]: active
- activity in the screen at 10 μM (confirmed in triplicates, >20% relative PGI release) ([3]; listed as Mefloquine): identified in our screening
- cytotoxicity at 10 µM [3, 6]: 16.9%
- PGI release, % of Tx-100 control at 10 µM [3, 7]: 7.4%
- cytotoxicity at 10 µM [3, 8]: 23.3%
- PGI release, % of Tx-100 control at 10 µM [3, 9]: 47.4%

Molecule: COC(=O)Nc1nc2ccc(C(=O)c3ccccc3)cc2[nH]1 [MMV003152, Mebendazole, reference compound]
- concentration inhibiting parasite proliferation ([2]; three weeks treatment, ref Jura et al., 1998): 1 µM
- cytotoxicity at 10 µM [3, 6]: 1.28%
- cytotoxicity at 10 µM [3, 8]: 11.9%

Molecule: CO[C@H]1/C=C/O[C@@]2(C)Oc3c(C)c(O)c4c(O)c(c(/C=N/N5CCN(C)CC5)c(O)c4c3C2=O)NC(=O)/C(C)=C\C=C\[C@H](C)[C@H](O)[C@@H](C)[C@@H](O)[C@@H](C)[C@H](OC(C)=O)[C@@H]1C [MMV688775, Rifampicin, reference compound]
- effect in vitro against E. multilocularis metacestodes [2]; 2006: ineffective
- activity in the present in vitro screen (threshold 20% relative activity compared to Tx-100) [3]: inactive
- cytotoxicity at 10 µM [3, 6]: -0.7%
- cytotoxicity at 10 µM [3, 8]: -1.35%

Molecule: CCCCCCCCCCCCCCCCOP(=O)([O-])OCC[N+](C)(C)C [MMV688990, Miltefosine, reference compound]
- effect in vitro against E. multilocularis metacestodes [2]; 2006: ineffective
- activity in the present in vitro screen (threshold 20% relative activity compared to Tx-100) [3]: inactive
- cytotoxicity at 10 µM [3, 6]: -1.11%
- cytotoxicity at 10 µM [3, 8]: -5.17%

Molecule: CC(=O)Oc1ccccc1C(=O)Nc1ncc([N+](=O)[O-])s1 [MMV688991, Nitazoxanide, reference compound]
- concentration shown to be active in vitro against metacestodes ([2]; ref Stettler et al., 2003, Reuter et al., 2006): 3.3 µM
- activity against metacestodes at 1 μM ([3]; 1 μM, triplicates): did not maintain its activity
- PGI release, % of Tx-100 control, average, 5d [3, 4]: 1.35%
- PGI release, % of Tx-100 control, average, 12d [3, 5]: 11.08%
- activity in the screen at 10 μM (confirmed in triplicates, >20% relative PGI release) [3]: active
- cytotoxicity at 10 µM [3, 6]: 57.7%
- PGI release, % of Tx-100 control at 10 µM [3, 7]: 54.7%
- cytotoxicity at 10 µM [3, 8]: 75.5%
- PGI release, % of Tx-100 control at 10 µM [3, 9]: 71.7%

Molecule: C[C@@H]1[C@H](O)[C@@H](C)/C=C/C=C/C=C/C=C/C=C/C=C/C=C/[C@H](O[C@@H]2O[C@H](C)[C@@H](O)[C@H](N)[C@@H]2O)C[C@@H]2O[C@](O)(C[C@@H](O)C[C@@H](O)[C@H](O)CC[C@@H](O)C[C@@H](O)CC(=O)O[C@H]1C)C[C@H](O)[C@H]2C(=O)O [MMV689000, Amphotericin B, reference compound]
- concentration shown to destroy metacestodes in vitro ([2]; ref Reuter et al., 2003, 2010): 2.7 µM
- cytotoxicity at 10 µM [3, 6]: 34.2%
- PGI release, % of Tx-100 control at 10 µM [3, 7]: -1.34%
- cytotoxicity at 10 µM [3, 8]: 51.2%
- PGI release, % of Tx-100 control at 10 µM [3, 9]: 2.75%

Molecule: CC(c1cc(Cl)cc(Cl)c1)N(C)c1ncc2c(N)nc(N)nc2n1 (stereo not drawn) [MMV689437]
- PGI release, % of the Tx-100 control, 5d ([3]; 5 days of incubation): 4.64%
- PGI release, % of the Tx-100 control, 12d ([3]; 12 days of incubation): 4.83%

Molecule: CNc1cc(C)nc(C2CN(C(=O)c3n[nH]c4ccccc34)CCO2)c1 (stereo not drawn) [MMV689709]
- PGI release, % of the Tx-100 control, 5d ([3]; 5 days of incubation): -5.26%
- PGI release, % of the Tx-100 control, 12d ([3]; 12 days of incubation): 58.81%
- PGI release, % of Tx-100 control, average, 5d [3, 10]: -0.32%
- PGI release, % of Tx-100 control, average, 12d [3, 11]: -0.96%

Molecule: COc1nc2ccc(Br)cc2cc1[C@@H](c1ccccc1)[C@@](O)(CCN(C)C)c1cccc2ccccc12 [MMV689758, Bedaquiline, reference compound]
- cytotoxicity at 10 µM [3, 6]: 2.07%
- cytotoxicity at 10 µM [3, 8]: -3.22%

Molecule: COc1ccc(C2=NN(C3CCCCCC3)C(=O)[C@@H]3CC=CC[C@H]23)cc1OCCCCOc1ccc(-c2nn[nH]n2)cc1 [MMV690027]
- PGI release, % of the Tx-100 control, 5d ([3]; 5 days of incubation): 9.58%
- PGI release, % of the Tx-100 control, 12d ([3]; 12 days of incubation): 27.83%
- PGI release, % of Tx-100 control, average, 5d [3, 10]: 0.20%
- PGI release, % of Tx-100 control, average, 12d [3, 11]: 0.24%

Molecule: COc1ccc(C2=NN(C3CCCCCC3)C(=O)C2(C)C)cc1OCCCCOc1ccc(-c2nn[nH]n2)cc1 [MMV690028]
- PGI release, % of the Tx-100 control, 5d ([3]; 5 days of incubation): 2.30%
- PGI release, % of the Tx-100 control, 12d ([3]; 12 days of incubation): 6.47%

Molecule: COc1ccc(Oc2ccc([C@@H](C)N(C)c3ncc4c(N)nc(N)nc4n3)cc2)cc1 [MMV690102]
- PGI release, % of Tx-100 control, average, 5d [3, 4]: -0.29%
- PGI release, % of Tx-100 control, average, 12d [3, 5]: 5.50%
- activity in the screen at 10 μM (confirmed in triplicates, >20% relative PGI release) [3]: active
- PGI release, % of the Tx-100 control, 5d ([3]; 5 days of incubation): 73.64%
- PGI release, % of the Tx-100 control, 12d ([3]; 12 days of incubation): 91.71%
- PGI release, % of Tx-100 control, average, 5d [3, 10]: 25.36%
- PGI release, % of Tx-100 control, average, 12d [3, 11]: 31.53%

Molecule: C[C@H](c1ccc2c(c1)CCCC2)N(C)c1ncc2c(N)nc(N)nc2n1 [MMV690103]
- PGI release, % of the Tx-100 control, 5d ([3]; 5 days of incubation): -3.58%
- PGI release, % of the Tx-100 control, 12d ([3]; 12 days of incubation): 41.60%
- PGI release, % of Tx-100 control, average, 5d [3, 10]: -0.48%
- PGI release, % of Tx-100 control, average, 12d [3, 11]: 4.22%

Molecule: CCc1ccc(C(NCc2nc(N)nc(N(C)C)n2)C(C)C)cc1 (stereo not drawn) [MMV1019989]
- PGI release, % of the Tx-100 control, 5d ([3]; 5 days of incubation): 0.39%
- PGI release, % of the Tx-100 control, 12d ([3]; 12 days of incubation): -3.04%

Molecule: O=C(Nc1nc(-c2ccccn2)cs1)C1CC1c1ccccc1F (stereo not drawn) [MMV1028806]
- PGI release, % of the Tx-100 control, 5d ([3]; 5 days of incubation): -2.32%
- PGI release, % of the Tx-100 control, 12d ([3]; 12 days of incubation): -0.32%

Molecule: CNC(=O)CNc1nc(-c2ccccn2)nc2scc(-c3ccccc3)c12 [MMV1029203]
- PGI release, % of the Tx-100 control, 5d ([3]; 5 days of incubation): -5.65%
- PGI release, % of the Tx-100 control, 12d ([3]; 12 days of incubation): 6.41%

Molecule: CCCn1c(NC(=O)c2ccc3ccccc3n2)nc2ccccc21 [MMV1030799]
- PGI release, % of the Tx-100 control, 5d ([3]; 5 days of incubation): 3.64%
- PGI release, % of the Tx-100 control, 12d ([3]; 12 days of incubation): 13.68%

Molecule: CCNC(=O)C(C)Nc1nc(-c2cccnc2)nc2sc(C)c(C)c12 (stereo not drawn) [MMV1037162]
- PGI release, % of the Tx-100 control, 5d ([3]; 5 days of incubation): 0.19%
- PGI release, % of the Tx-100 control, 12d ([3]; 12 days of incubation): -2.69%

Molecule: Cc1ccc(-c2nc(CN(Cc3ccccn3)C(C)C)cs2)o1 [MMV1088520]
- PGI release, % of the Tx-100 control, 5d ([3]; 5 days of incubation): -5.44%
- PGI release, % of the Tx-100 control, 12d ([3]; 12 days of incubation): -2.75%

Molecule: COc1cccn2c(C(=O)N3CCCCC3)c(C(F)(F)F)nc12 [MMV1110498]
- PGI release, % of the Tx-100 control, 5d ([3]; 5 days of incubation): -3.14%
- PGI release, % of the Tx-100 control, 12d ([3]; 12 days of incubation): 0.63%

Molecule: Cc1cc(OCC(=O)Nc2ccc(C(C)C)cc2)n(C)c(=O)c1C#N [MMV1198433]
- PGI release, % of the Tx-100 control, 5d ([3]; 5 days of incubation): 2.43%
- PGI release, % of the Tx-100 control, 12d ([3]; 12 days of incubation): -0.19%

Molecule: CCOC(=O)c1noc(N)c1-c1ccccc1 [MMV1236379]
- PGI release, % of the Tx-100 control, 5d ([3]; 5 days of incubation): 3.51%
- PGI release, % of the Tx-100 control, 12d ([3]; 12 days of incubation): 4.87%

Molecule: Levofloxacin (-)-ofloxacin [MMV687798, reference compound]
- PGI release, % of the Tx-100 control, 5d ([3]; 5 days of incubation): -0.0541%
- PGI release, % of the Tx-100 control, 12d ([3]; 12 days of incubation): -0.33%
